Tests used:
[1] = ref Kandasamy et al., 2021; cited from earlier work
MOR = details: ref Kandasamy et al., 2021; cited from earlier work
δ-opioid receptor (DOR) = details: ref Stanczyk et al., 2019; cited from earlier work
C57BL/6 mice = assay: Naloxone-precipitated opioid withdrawal paradigm; assay type: in vivo, mouse; details: morphine 10 mg/kg s.c. or oxycodone 3.5 mg/kg s.c. twice a day for 5 consecutive days
female C57Bl/6 mice = assay: Respiratory and heart rate measurements; assay type: in vivo, mouse
[2] = high dose 30 mg/kg s.c., compared with vehicle

## COc1ccc(C2SCCN2S(=O)(=O)c2ccc(Cl)cc2)cc1Br (centres unmarked) [BMS-986122]
[1]
  antinociception and side effects in vivo: produces antinociception with reduced side effects
MOR
  G protein activation vs β-arrestin recruitment: enhance G protein activation to a greater extent than β-arrestin recruitment

## Cc1ccccc1COc1ccc(C2C3=C(CC(C)(C)CC3=O)OC3=C2C(=O)CC(C)(C)C3)cc1 [BMS-986187]
δ-opioid receptor (DOR)
  G protein activation vs β-arrestin recruitment: enhance G protein activation to a greater extent than β-arrestin recruitment

## CN1CC[C@]23c4c5ccc(O)c4O[C@H]2[C@@H](O)C=C[C@H]3[C@H]1C5 [morphine]
C57BL/6 mice
  naloxone-precipitated withdrawal syndrome of the opioid: mild withdrawal syndrome
Female C57Bl/6 mice; [2]
  breathing rate (respiratory depression): caused significant respiratory depression
  heart rates: decrease in heart rates
Female C57Bl/6 mice; mice
  dose for respiratory depression relative to dose required for analgesia: three to five times

## COc1ccc2c3c1O[C@H]1C(=O)CC[C@@]4(O)[C@@H](C2)N(C)CC[C@]314 [oxycodone]
C57BL/6 mice
  naloxone-precipitated withdrawal syndrome of the opioid: mild withdrawal syndrome
